Results taken from patent publication EP4159213A1, “PHARMACEUTICAL COMPOSITIONS FOR USE IN PREVENTION AND/OR TREATMENT AND/OR CURE OF HEPATITIS B VIRUS” (Katholieke Universiteit Leuven, priority 2021, dated 2023).
Where a name gives a salt, the structure may show the parent alone. Read-outs that look alike come from different tables or passages of the source. Residues, ends and D or L forms follow the SMILES beside them.

Molecular target: T1, human NTCP (Homo sapiens, UniProt Q14973)
T1 sequence (Q14973 1-349): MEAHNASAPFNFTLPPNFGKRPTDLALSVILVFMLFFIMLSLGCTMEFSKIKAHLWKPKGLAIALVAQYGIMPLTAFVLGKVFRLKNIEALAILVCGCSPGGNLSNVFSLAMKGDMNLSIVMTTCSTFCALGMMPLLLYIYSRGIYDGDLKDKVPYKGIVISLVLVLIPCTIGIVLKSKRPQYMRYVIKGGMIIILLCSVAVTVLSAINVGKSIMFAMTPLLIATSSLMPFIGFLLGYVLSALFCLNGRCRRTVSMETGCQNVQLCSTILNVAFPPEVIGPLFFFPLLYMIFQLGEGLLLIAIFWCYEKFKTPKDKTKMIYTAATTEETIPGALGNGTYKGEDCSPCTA
Experiment: Inhibition of tauro-nor-THCA-24-DBD uptake in NTCP-transfected CHO cells
Format: cell-based
Parameters: expressed in transfected cells; host or cells: CHO cells, geneticin selection, expression induced with sodium butyrate
Conditions: for concentration-dependent inhibition of tauro-nor-THCA-24-DBD uptake: multiple inhibitor concentrations
Experimental: The cells were placed in an incubator at 37 °C and 5% CO2. The culture medium consisted of DMEM with 1 g·L^-1 glucose and 25 mM HEPES, supplemented with 10% FBS, 0.05 mg·mL^-1 L-proline, 100 IU·mL^-1 penicillin, 100 […], 2 mM glutamine, 0.11 mg·mL^-1 sodium pyruvate. To ensure selection of NTCP-transfected cells, 0.5 mg·mL^-1 geneticin was added to the medium of the transfected cells. Cells were seeded in black 96-well plates with transparent bottom at a density of 6000 cells·well^-1 and 4000 cells·well^-1 for wild-type and transfected cells, respectively. The medium was replaced every other day and 5 mM sodium butyrate was added to induce protein expression at least 36 h before the start of the experiments. Experiments were performed on day 4 or 5 after seeding when confluence was reached.
Furthermore, to analyse the uptake experiments in NTCP-transfected CHO cells, cells were rinsed twice with 200 µL-well^-1 uptake buffer (HBSS containing 10 mM HEPES, pH 7.4) at 37 °C and subsequently preincubated with 100 µL uptake buffer for 15 minutes. For inhibition experiments, compounds were added at double concentration during preincubation. Uptake was initiated by adding 100 µL double-concentrated tauro-nor-THCA-24-DBD solution in uptake buffer. Cells were incubated for 15 minutes. The reaction was quenched by aspirating the incubation mixture and washing four times with ice cold uptake buffer. The cells were lysed with 100 µL 0.5% Triton X-100 in PBS and placed on a plate shaker (300 rpm) at room temperature for 30 minutes. Uptake of tauro-nor-THCA-24-DBD was determined using fluorescence spectroscopy (excitation 440 nm, emission 580 nm) using a Tecan Infinite 200 plate reader (Tecan Benelux, Mechelen, Belgium). Protein content of each well was determined with the BCA Protein assay (Thermo Fisher Scientific, Waltham, MA) performed according to the manufacturer's protocol. Uptake kinetics of tauro-nor-THCA-24-DBD were determined by incubating eight different concentrations in the absence of any compound. […] All conditions were tested in triplicate.
Uptake of tauro-nor-THCA-24-DBD in presence of compounds was expressed to uptake of the control for each batch, i.e. when no compound was present.
For determination of the IC50, the uptake in presence of various concentrations of inhibitor was fitted to the sigmoid Emax model: E = Emax −(Emax−E0) × (([I])^n)/(([I])^n + IC50^n) [formula] with E the uptake of tauro-nor-THCA-24-DBD, E0 the uptake at maximal inhibition by the compound, Emax the uptake at minimal inhibition, IC50 the concentration of the inhibitor at half maximal inhibition, n the Hill coefficient and [I] the concentration of the inhibitor. All curves were fitted with nonlinear least squares regression using R version 3.5.1.
Assuming competitive inhibition, the Cheng-Prusoff equation was used to determine the Ki value: Ki = (IC50)/(1 + ([S])/(Km)) [formula] where Ki is the binding affinity of the inhibitor, IC50 the concentration of the inhibitor at half maximal inhibition, [S] the substrate concentration, and Km the Michaelis-Menten constant of the substrate.

[1] = 3 µM tauro-nor-THCA-24-DBD, Cheng-Prusoff from IC50, screening hits, read-out: Ki
[2] = compound at equimolar concentration with 3 µM tauro-nor-THCA-24-DBD, triplicate
[3] = 3 µM tauro-nor-THCA-24-DBD, 15 minutes, Cheng-Prusoff from IC50, known NTCP inhibitors, read-out: Ki ± SE

SMILES | Ki [1] | Uptake of tauro-nor-THCA-24-DBD (% of control) [2] | other results
O=C(O)c1cc([N+](=O)[O-])ccc1NCCCc1ccccc1 [5-nitro-2-phenylpropylaminobenzoic acid] | 0.82 µM | 49.55 % of control | 
C=CC(C)(O)CCC=C(C)C (stereo not drawn) [(+)- Linalool] |  | 46.35 % of control | 
COc1cc2c(cc1OC)[C@@H]1C(=O)c3ccc4c(c3O[C@@H]1CO2)C=CC(C)(C)O4 [(-)-Deguelin] | 1.67 µM | 27.97 % of control | 
COc1ccc(-c2oc3c(CC=C(C)C)c(O)cc(O)c3c(=O)c2O[C@@H]2O[C@@H](C)[C@H](O)[C@@H](O)[C@H]2O)cc1 [Baohuoside I] |  |  | concentration-dependent inhibition of tauro-nor-THCA-24-DBD uptake (3 µM tauro-nor-THCA-24-DBD): showed concentration-dependent inhibition; Ki (3 µM tauro-nor-THCA-24-DBD, values given with ± spread, read-out: Ki): 12.6 ± 4.1 µM
COc1ccccc1Oc1c(NS(=O)(=O)c2ccc(C(C)(C)C)cc2)nc(-c2ncccn2)nc1OCCO [Bosentan] |  |  | Ki [3]: 6.3 ± 1.4 µM; concentration-dependent inhibition of tauro-nor-THCA-24-DBD uptake (3 µM tauro-nor-THCA-24-DBD): concentration-dependent manner
O=C1OC(c2ccc(O)c(S(=O)(=O)O)c2)(c2ccc(O)c(S(=O)(=O)O)c2)c2c(Br)c(Br)c(Br)c(Br)c21 [Bromosulfophthalein] |  |  | Ki [3]: 10.7 ± 3.1 µM; concentration-dependent inhibition of tauro-nor-THCA-24-DBD uptake (3 µM tauro-nor-THCA-24-DBD): concentration-dependent manner
CCOc1nc2cccc(C(=O)OC(C)OC(=O)OC3CCCCC3)c2n1Cc1ccc(-c2ccccc2-c2nnn[nH]2)cc1 (centres unmarked) [Candesartan cilextil] | 0.34 µM | 19.76 % of control | 
Cn1nnnc1SCC1=C(C(=O)O)N2C(=O)[C@@H](NC(=O)[C@H](O)c3ccccc3)[C@H]2SC1 [Cefamandole sodium] | 2.07 µM | 23.97 % of control | 
COC(=O)CC[C@@H](C)[C@H]1CC[C@H]2[C@@H]3[C@H](O)C[C@@H]4C[C@H](O)CC[C@]4(C)[C@H]3C[C@H](O)[C@]12C [Cholic acid, methyl ester] |  |  | Ki: 2.32 µM; Uptake of tauro-nor-THCA-24-DBD (% of control): 37.90 % of control
COc1cc(OC)c2ccc(=O)oc2c1 [Citropten] |  | 46.97 % of control | 
CC(C)(O)CC[C@@H](O)[C@](C)(O)[C@H]1CC[C@@]2(O)C3=CC(=O)[C@@H]4C[C@@H](O)[C@@H](O)C[C@]4(C)[C@H]3CC[C@]12C [Crustecdysone] |  | 46.18 % of control | 
CC/C(=C(/CC)c1ccc(O)cc1)c1ccc(O)cc1 [Diethylstilbestrol] | 1.57 µM | 48.51 % of control | 
COc1cc2c(cc1OC)[C@@H]1C(=O)c3ccc4c(c3O[C@@H]1CO2)C[C@H](C(C)C)O4 [Dihydrorotenone] | 1.11 µM | 37.31 % of control | 
CCC(=O)O[C@H]1[C@H](O[C@@H]2[C@@H](C)[C@H](O[C@H]3C[C@@](C)(OC)[C@@H](O)[C@H](C)O3)[C@@H](C)C(=O)O[C@H](CC)[C@@](C)(O)[C@H](O)[C@@H](C)C(=O)[C@H](C)C[C@@]2(C)O)O[C@H](C)C[C@@H]1N(C)C [Erythromycin estolate] | 0.52 µM | 8.49 % of control | 
O=C(O)c1ccccc1Nc1cccc(C(F)(F)F)c1 [Flufenamic acid] | 7.51 µM | 44.12 % of control | 
CN[C@@H]1[C@@H](O)[C@@H](O[C@@H]2[C@@H](O)[C@H](O[C@H]3O[C@H]([C@@H](C)O)[C@@H](O)[C@H](O)[C@H]3N)[C@@H](N)C[C@H]2N)OC[C@]1(C)O [Geneticin] |  | 43.81 % of control | 

SMILES | Ki [1] | Uptake of tauro-nor-THCA-24-DBD (% of control) [2] | other results
CC(=O)O.Cc1cc2c(C(C)C)c(O)c(O)c(C=O)c2c(O)c1-c1c(C)cc2c(C(C)C)c(O)c(O)c(C=O)c2c1O [Gossypol-acetic acid complex] | 3.1 µM | 36.14 % of control | 
Cc1cc2c(C(C)C)c(O)c(O)c(C=O)c2c(O)c1-c1c(C)cc2c(C(C)C)c(O)c(O)c(C=O)c2c1O [Gossypol] | 0.4 µM | 12.48 % of control | 
Cc1cc(O)c(C=O)c(O)c1C(=O)O [Haematommic acid] |  | 49.33 % of control | 
Oc1c(Cl)cc(Cl)c(Cl)c1Cc1c(O)c(Cl)cc(Cl)c1Cl [Hexachlorophene] |  | 23.92 % of control | Ki: 0.26 µM
COc1cc(-c2coc3cc(OCc4ccccc4)c(OC)c(O)c3c2=O)cc(O)c1OC [Irigenin, 7-benzyl ether] | 13 µM | 46.71 % of control | 
CC(=O)O[C@H]1C[C@H](O[C@H]2[C@@H](O)C[C@H](O[C@H]3[C@@H](O)C[C@H](O[C@H]4CC[C@@]5(C)[C@H](CC[C@@H]6[C@@H]5C[C@@H](O)[C@]5(C)[C@@H](C7=CC(=O)OC7)CC[C@]65O)C4)O[C@@H]3C)O[C@@H]2C)O[C@H](C)[C@H]1O[C@@H]1O[C@H](CO)[C@@H](O)[C@H](O)[C@H]1O [Lanatoside c] |  |  | Ki: 125 µM; Uptake of tauro-nor-THCA-24-DBD (% of control): 45.13 % of control
CCCCCc1c2c(cc(O)c1C(=O)O)OC(=O)c1c(cc(OC)cc1C(=O)CCCC)O2 [Lobaric acid] | 0.36 µM | 9.70 % of control | 
COC(=O)CC[C@@H](C)[C@H]1CC[C@H]2[C@@H]3CC[C@@H]4C[C@H](O)CC[C@]4(C)[C@H]3C[C@H](O)[C@]12C [Methyl deoxycholate] | 4.84 µM | 36.71 % of control | 
COC(=O)C1=C(C)NC(C)=C(C(=O)OCCN(C)Cc2ccccc2)C1c1cccc([N+](=O)[O-])c1 (centres unmarked) [Nicardipine hydrochloride] | 3.53 µM | 42.69 % of control | 
O=C(Nc1ccc([N+](=O)[O-])cc1Cl)c1cc(Cl)ccc1O [Niclosamide] | 0.08 µM | 35.45 % of control | 
Oc1c(Cl)c(Cl)c(Cl)c(Cl)c1Cl [Pentachlorophenol] | 2.27 µM | 46.29 % of control | 
N[C@@H](Cc1ccccc1)C(=O)N[C@@H](Cc1ccc(O)cc1)C(=O)O [Phenylalanyltyrosine] (H-Phe-Tyr-OH) |  | 47.22 % of control | 
COC(=O)[C@H]1[C@H]2C[C@H]3c4[nH]c5ccccc5c4CCN3C[C@H]2CC[C@@H]1O [Rauwolscine hydrochloride] | 39.3 µM |  | 
COc1ccc(-c2c(OC)c3c(OC)c4c(cc3oc2=O)OC(C)(C)C=C4)cc1 [Robustic acid methyl ether] | 10.6 µM | 21.11 % of control | 
COc1c(CC=C(C)C)c2c(c3oc(=O)c(-c4ccc(O)cc4)c(O)c13)C=CC(C)(C)O2 [Scandenin] |  | 38.92 % of control | 
O=C(OC[C@H]1O[C@@H](OC(=O)c2cc(O)c(O)c(OC(=O)c3cc(O)c(O)c(O)c3)c2)[C@H](OC(=O)c2cc(O)c(O)c(OC(=O)c3cc(O)c(O)c(O)c3)c2)[C@@H](OC(=O)c2cc(O)c(O)c(OC(=O)c3cc(O)c(O)c(O)c3)c2)[C@@H]1OC(=O)c1cc(O)c(O)c(OC(=O)c2cc(O)c(O)c(O)c2)c1)c1cc(O)c(O)c(OC(=O)c2cc(O)c(O)c(O)c2)c1 [Tannic acid] | 0.35 µM | 8.31 % of control | 
